From publication PMC8322138, “BRCA2 binding through a cryptic repeated motif to HSF2BP oligomers does not impact meiotic recombination” (Nature Communications, 2021) come the findings set out here.

Series [1] addresses mouse HSF2BP-GFP (homozygous Hsf2bp-GFP knock-in allele) (mouse (endogenous in mES cells)) (UniProt Q9D4G2). The experiment in a line: co-IP; anti-GFP nanobody beads on lysates of Hsf2bp^GFP/GFP mES cells with Brca2 wt, ∆12 or ∆12-14 alleles; BRCA2 blotted, fluorescent secondary antibodies; NETT buffer.
Series [2] has as its target T1, HSF2BP FL (Homo sapiens, UniProt O75031).
T1 construct: Human full-length HSF2BP WT and R200T were expressed; 6xHis-TEV (N, cleaved yes); made in house; host or cells: E. coli BL21 DE3 Rosetta2
T1 sequence (O75031 1-334): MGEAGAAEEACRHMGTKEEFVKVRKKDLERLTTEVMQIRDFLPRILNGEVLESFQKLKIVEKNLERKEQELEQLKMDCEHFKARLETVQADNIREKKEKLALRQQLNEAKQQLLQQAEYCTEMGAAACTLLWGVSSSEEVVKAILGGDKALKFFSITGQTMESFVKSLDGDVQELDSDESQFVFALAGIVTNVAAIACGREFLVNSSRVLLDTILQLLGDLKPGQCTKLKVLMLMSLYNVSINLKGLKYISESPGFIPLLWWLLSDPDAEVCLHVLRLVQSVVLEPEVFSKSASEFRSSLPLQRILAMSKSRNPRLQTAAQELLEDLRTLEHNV
The experiment in a line: ITC of BRCA2 fragments with full-length HSF2BP. The series is classed as binding. The settings on record: for n (stoichiometry) / ΔG / −TΔS / ΔH (±error) / affinity (in words): 293 K. From the text: (§1) Human full-length HSF2BP WT and R200T were expressed using a pETM11 (6xHis-TEV) expression vector in E. coli BL21 DE3 Rosetta2 cells, and purified as previously reported (Brandsma et al., Cell Rep 2019). The armadillo domain of HSF2BP, from aa 122 to aa 334, which we will further name ARM, was similarly expressed using a pETM11 (6xHis-TEV) expression vector in BL21 DE3 Rosetta2 cells and purified as full-length HSF2BP.
(§2) Human BRCA2 fragment F0 was expressed using a pET-22b expression vector as a fusion protein comprising BRCA2 from aa 2213 to aa 2342 (including mutation C2332T to avoid oxidation problems), a TEV site, a GB1 and 6xHis tag, in E. coli BL21 DE3 Star cells. The BRCA2 gene was optimized for expression in bacteria and synthesized by Genscript. In addition, smaller BRCA2 fragments were produced using the same strategy: FNMR and F15X corresponding to aa 2252 to aa 2342 and aa 2291 to aa 2343, respectively. The smallest fragment F15X∆12, from aa 2312 to aa 2342, was synthesized by Genecust.
(§3) ITC experiments were performed using a high-precision VP-ITC instrument (GE Healthcare) at 293 K. To characterize the interactions between HSF2BP and BRCA2 fragments (WT, variants), the proteins were dialyzed against 25 mM Tris pH 7.5, 250 mM NaCl, 5 mM β-mercaptoethanol. The HSF2BP (or ARM domain) was in the sample cell at 10–20 μM and was titrated by BRCA2 fragments at 40–100 μM, using 10 μL injections with 210 s intervals between each injection. The first 2 μL injection was ignored in the final data analysis. The integration of the peaks corresponding to each injection. the correction for the baseline and the fit were performed using the Origin 7.0 software provided by the manufacturer, to obtain the stoichiometry (N), dissociation constant (Kd), and enthalpy of complex formation (ΔH) for each interaction. Two replicates were performed for each experiment.

In series [3] the target is T2, ARM domain of HSF2BP (Homo sapiens, UniProt O75031).
T2 construct: The armadillo domain of HSF2BP, from aa 122 to aa 334; 6xHis-TEV (N, cleaved yes); made in house; host or cells: E. coli BL21 DE3 Rosetta2
T2 sequence (O75031 122-334): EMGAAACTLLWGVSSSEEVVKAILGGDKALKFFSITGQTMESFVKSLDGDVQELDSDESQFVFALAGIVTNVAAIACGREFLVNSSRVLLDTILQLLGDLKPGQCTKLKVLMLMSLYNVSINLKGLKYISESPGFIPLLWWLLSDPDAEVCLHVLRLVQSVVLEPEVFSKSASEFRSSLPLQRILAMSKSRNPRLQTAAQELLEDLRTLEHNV
The experiment in a line: Analytical gel filtration of ARM with F15XΔ12. The series is classed as physicochemical. The settings on record: SEC, Superose 6 Increase 10/300, ARM to peptide ratio 1:1.2, pH 7.5. How it is done: SEC was also used to characterize ARM and ARM bound to F15XΔ12. The ARM domain was loaded on a Superose 6 Increase 10/300 (GE Healthcare) alone (at 2 mg/ml) or bound to F15XΔ12 (at 5 mg/ml, ARM to peptide ratio 1:1.2) in 25 mM Tris-HCl buffer, pH 7.5, 250 mM NaCl, and 5 mM β-mercaptoethanol. The OD values from the elution of ARM alone were multiplied by 2.5 to be compared to the OD values from the elution of ARM bound to F15XΔ12.
(Size exclusion chromatography separates by hydrodynamic size, large species first.)

For series [4], the target named is mouse BRCA2-GFP ∆12 (exon 12 deleted) (mouse (endogenous in mES cells)) (UniProt P97929). The experiment in a line: co-IP; anti-GFP nanobody beads on lysates of mES cells with homozygous Brca2-GFP alleles (full, ∆12, ∆12-14); HSF2BP blotted, fluorescent secondary antibodies; NETT buffer.
Series [5] deals with the molecule itself. Put plainly: SEC-MALS; free ARM; Superdex 200 10/300 GL; 25 mM Tris-HCl pH 7.5, 250 mM NaCl, 5 mM beta-mercaptoethanol; 0.8-1 mg/ml in 100 ul.
Series [6] concerns the molecule itself. Put plainly: SEC-MALS + other: SEC-SAXS; ARM with F15X; SEC-MALS on Superdex 200 10/300 GL, SEC-SAXS on Bio SEC-3; 25 mM Tris-HCl pH 7.5, 250 mM NaCl, 5 mM beta-mercaptoethanol; tetramer = two ARM dimers with two F15X.
Series [7] has as its target T2, ARM domain of HSF2BP. The experiment in a line: ITC of BRCA2 fragments with HSF2BP armadillo domain. The series is classed as binding. The conditions noted are these: for ΔG / −TΔS / ΔH (±error): 293 K.
Description: as §1, §2, §3

Series [8] concerns the target T2, ARM domain of HSF2BP. The experiment in a line: 2D NMR 1H-15N HSQC of 15N-labeled F0 with ARM. The series is classed as binding. The conditions noted are these: 15N-F0 100 μM, ARM 1:1, 950 MHz, 283 K; peaks of S2252-Q2342. How it is done: For NMR analysis, ^15N-labeled or ^15N- and ^13C-labeled BRCA2 fragments were produced in E. coli BL21 DE3 Star cells grown in M9 medium containing either 0.5 g/l ^15NH4Cl or 0.5 g/l ^15NH4Cl and 2 g/l ^13C-glucose, respectively. […]
The ^15N/^13C-labeled F0 fragment was analyzed by 3D heteronuclear NMR. in order to assign its Hn, N, Cα, Cβ, and Co chemical shifts, and identify its binding site to HSF2BP. Therefore, 3D NMR HNCA, CBCACONH, HNCACB, HNCANNH, HNCO, and HNCACO experiments were performed on a 700 MHz Bruker AVANCE NEO spectrometer equipped with a triple resonance cryogenic TCI probe at 283 K. The data were processed using Topspin 4.0 (Bruker) and analyzed using CCPNMR 2.4[49]. […] For binding studies, 2D NMR ^1H-^15N HSQC experiments were recorded on a 3-mm-diameter sample tube containing the ^15N-labeled F0 at 100 μM in the absence and presence of the ARM domain at 100 μM, on a 950 MHz Bruker Avance III spectrometer equipped with a triple resonance cryogenic TCI probe at 283 K.

[9] abbreviates: pH 7.5, expt 1, error in brackets.
Where [10] appears, read: pH 7.5, expt 2, error in brackets.

Ends that are not written are not given here.

Sequence of mouse BRCA2-GFP ∆12 (exon 12 deleted) (mouse (endogenous in mES cells)) (P97929 whole entry, stated change not applied): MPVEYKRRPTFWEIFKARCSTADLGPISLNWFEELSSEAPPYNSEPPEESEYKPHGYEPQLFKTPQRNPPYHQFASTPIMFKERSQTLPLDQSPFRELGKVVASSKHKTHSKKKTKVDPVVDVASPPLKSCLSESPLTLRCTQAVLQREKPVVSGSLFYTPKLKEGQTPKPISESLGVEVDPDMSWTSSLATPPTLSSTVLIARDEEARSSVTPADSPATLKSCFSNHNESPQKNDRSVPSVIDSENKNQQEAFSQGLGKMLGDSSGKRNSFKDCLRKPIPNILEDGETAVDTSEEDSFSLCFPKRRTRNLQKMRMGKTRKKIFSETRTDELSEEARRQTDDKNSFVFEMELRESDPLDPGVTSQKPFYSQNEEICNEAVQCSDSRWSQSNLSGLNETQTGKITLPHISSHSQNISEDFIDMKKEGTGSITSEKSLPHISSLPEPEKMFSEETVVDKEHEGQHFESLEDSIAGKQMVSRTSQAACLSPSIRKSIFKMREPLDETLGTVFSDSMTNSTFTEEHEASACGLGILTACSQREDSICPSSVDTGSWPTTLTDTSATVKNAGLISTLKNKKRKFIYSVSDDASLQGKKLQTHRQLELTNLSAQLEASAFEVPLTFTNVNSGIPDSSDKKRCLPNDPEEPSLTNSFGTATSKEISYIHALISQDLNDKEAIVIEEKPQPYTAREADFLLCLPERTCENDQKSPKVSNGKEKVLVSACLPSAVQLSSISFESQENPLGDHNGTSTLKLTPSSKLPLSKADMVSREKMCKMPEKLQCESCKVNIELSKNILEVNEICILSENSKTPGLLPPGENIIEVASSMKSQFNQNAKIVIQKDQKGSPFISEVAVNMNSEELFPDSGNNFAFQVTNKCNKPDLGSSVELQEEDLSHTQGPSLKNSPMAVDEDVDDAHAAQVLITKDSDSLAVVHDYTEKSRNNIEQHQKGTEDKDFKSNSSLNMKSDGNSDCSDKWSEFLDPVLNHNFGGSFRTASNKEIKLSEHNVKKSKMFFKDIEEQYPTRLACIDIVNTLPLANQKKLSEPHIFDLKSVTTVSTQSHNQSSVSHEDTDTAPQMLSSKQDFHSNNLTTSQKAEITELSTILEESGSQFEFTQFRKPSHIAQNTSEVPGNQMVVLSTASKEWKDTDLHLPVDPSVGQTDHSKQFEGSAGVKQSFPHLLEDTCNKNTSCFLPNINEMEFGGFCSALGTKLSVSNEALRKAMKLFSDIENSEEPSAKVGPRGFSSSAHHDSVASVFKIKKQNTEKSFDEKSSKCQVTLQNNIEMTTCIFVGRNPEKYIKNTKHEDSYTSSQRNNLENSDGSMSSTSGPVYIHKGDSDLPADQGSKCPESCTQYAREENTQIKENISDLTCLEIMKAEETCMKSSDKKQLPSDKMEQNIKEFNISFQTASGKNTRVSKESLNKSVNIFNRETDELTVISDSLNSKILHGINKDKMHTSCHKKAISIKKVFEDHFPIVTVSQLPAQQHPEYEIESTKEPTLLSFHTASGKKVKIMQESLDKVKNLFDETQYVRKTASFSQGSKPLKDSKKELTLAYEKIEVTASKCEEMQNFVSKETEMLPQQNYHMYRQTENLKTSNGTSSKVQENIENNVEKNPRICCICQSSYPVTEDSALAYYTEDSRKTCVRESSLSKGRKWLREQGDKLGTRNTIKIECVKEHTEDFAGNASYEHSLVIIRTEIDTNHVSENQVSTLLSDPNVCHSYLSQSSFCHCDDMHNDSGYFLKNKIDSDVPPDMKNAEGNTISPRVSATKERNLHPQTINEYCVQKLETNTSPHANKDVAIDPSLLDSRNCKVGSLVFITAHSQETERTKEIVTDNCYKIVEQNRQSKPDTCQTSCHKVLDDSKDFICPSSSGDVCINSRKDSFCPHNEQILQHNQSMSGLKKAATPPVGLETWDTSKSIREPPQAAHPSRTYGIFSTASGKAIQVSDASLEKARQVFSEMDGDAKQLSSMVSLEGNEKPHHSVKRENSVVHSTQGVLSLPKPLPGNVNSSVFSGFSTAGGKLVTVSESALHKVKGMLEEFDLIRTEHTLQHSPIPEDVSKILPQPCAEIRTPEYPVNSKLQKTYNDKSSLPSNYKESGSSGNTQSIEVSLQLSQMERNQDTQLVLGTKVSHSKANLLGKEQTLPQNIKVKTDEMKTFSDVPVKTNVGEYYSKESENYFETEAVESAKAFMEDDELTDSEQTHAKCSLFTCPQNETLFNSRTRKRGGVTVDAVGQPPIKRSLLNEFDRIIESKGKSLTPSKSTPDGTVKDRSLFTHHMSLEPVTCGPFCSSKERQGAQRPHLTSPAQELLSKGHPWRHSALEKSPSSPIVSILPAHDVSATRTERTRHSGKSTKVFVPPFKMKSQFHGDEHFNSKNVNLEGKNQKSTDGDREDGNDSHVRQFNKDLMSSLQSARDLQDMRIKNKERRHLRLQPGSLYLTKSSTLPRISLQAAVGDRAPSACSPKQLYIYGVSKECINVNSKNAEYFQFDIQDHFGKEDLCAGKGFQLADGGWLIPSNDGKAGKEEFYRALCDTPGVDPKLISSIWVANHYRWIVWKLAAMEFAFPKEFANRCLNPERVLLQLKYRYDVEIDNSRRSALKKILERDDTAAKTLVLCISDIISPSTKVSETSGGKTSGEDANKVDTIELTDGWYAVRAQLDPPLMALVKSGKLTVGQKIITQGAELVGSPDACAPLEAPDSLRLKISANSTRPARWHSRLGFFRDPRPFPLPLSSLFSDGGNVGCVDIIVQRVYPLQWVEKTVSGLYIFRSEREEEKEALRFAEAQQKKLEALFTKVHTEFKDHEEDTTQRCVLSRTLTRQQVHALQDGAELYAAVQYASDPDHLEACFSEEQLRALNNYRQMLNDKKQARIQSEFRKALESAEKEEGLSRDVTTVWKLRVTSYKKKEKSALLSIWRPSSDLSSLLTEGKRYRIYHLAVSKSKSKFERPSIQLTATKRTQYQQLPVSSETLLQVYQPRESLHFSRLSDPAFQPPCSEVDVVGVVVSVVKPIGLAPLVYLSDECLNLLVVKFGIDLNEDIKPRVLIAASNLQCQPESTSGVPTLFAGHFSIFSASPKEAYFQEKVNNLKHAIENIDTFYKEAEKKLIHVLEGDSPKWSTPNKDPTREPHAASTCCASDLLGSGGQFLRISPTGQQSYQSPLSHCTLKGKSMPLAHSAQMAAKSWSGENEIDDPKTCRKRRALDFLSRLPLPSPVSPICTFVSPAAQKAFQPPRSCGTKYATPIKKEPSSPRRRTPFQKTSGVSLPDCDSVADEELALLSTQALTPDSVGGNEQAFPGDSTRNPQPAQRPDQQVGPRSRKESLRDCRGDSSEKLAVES

Take “mouse BRCA2-∆12 in Hsf2bp^GFP/GFP Brca2^∆12/∆12 mES cells (from UniProt P97929 1-3329) (natural protein)”: the percent loss of co-precipitation against wild-type BRCA2 in series [1] fell in the range of 97 to 99%.

Consider “DGTIKDRRLFMHHVSLEPITTVPFRTTKERQE [F15XΔ12]”, for which the “n (stoichiometry)” value was determined as 0.89 in series [2] (pH 7.5, expt 1) and 0.90 in series [2] (pH 7.5, expt 2). In addition, the ΔG is -7.8 kcal/mol in series [2] (pH 7.5, expt 1) and -7.6 kcal/mol in series [2] (pH 7.5, expt 2). The “−TΔS” value in series [2] (pH 7.5, expt 1) is -6.1 kcal/mol; in series [2] (pH 7.5, expt 2), -5.8 kcal/mol. Also, the entries for the “ΔH (±error)” value in series [2] (setting [9]) and in series [2] (setting [10]) were −1.7 (0.3) kcal/mol and −1.8 (0.2) kcal/mol, respectively. The “affinity (in words)” value in series [2] (pH 7.5, listed as F15X∆12) is listed as “in the micromolar range”; in series [2] (pH 7.5, listed as motif 2), “micromolar affinity”. For the same molecule, in series [2] (BRCA2 peptide per HSF2BP), the stoichiometry was 1. In series [2] (weaker than the affinity of HSF2BP for F0), the “affinity relative to F0 (weaker)” value was 1000 -fold. In addition, the entries for the “oligomerization of ARM upon binding” value in series [3] (listed as F15X∆12) and in series [3] (listed as motif 2) were “does not oligomerize” and “unable by itself to trigger oligomerization”, respectively.

B1: mouse HSF2BP, endogenous in mES cells (natural protein)
chain: MAATVGDGSGTEEACRNMESKEEFVKVRKKDLERLTTEVMQIRDFLPRILNGELLESFQKLKMVEKNLERKEQELEQLIMDREHFKARLETAQADSGREKKEKLALRQQLNEAKQQLLQQAEYCTQMGAVTCTLLWGVSSSEEVVKTILGGDKALKFFNITGQTMESFVKSLDGDVKEVDSDENQFVFALAGIVTNVAAIACGREFLVNSSRVLLDTMLQLLGDLKPGQCTKLKVLMLMSLYNVSINSKGLKYITESPGFIPLLWWLLSDPDAEVCLHTLRLIQSVVLEPDVFSKVASELQSSLPLQRILAMSKSRNSHLQSAAQELLEDLRALDCNV
The molecule B1 gave a percent loss of co-precipitation against full-length BRCA2-GFP in series [4] of 95%.

B2: armadillo domain of HSF2BP, from aa 122 to aa 334 (ARM) (domain or fragment, human, UniProt O75031 122-334, looked up)
chain: EMGAAACTLLWGVSSSEEVVKAILGGDKALKFFSITGQTMESFVKSLDGDVQELDSDESQFVFALAGIVTNVAAIACGREFLVNSSRVLLDTILQLLGDLKPGQCTKLKVLMLMSLYNVSINLKGLKYISESPGFIPLLWWLLSDPDAEVCLHVLRLVQSVVLEPEVFSKSASEFRSSLPLQRILAMSKSRNPRLQTAAQELLEDLRTLEHNV
notes: Free ARM is a dimer (SEC-MALS); four ARM with two F15X in the complex; A selenomethionine-labelled form was used for the deposited crystal structure; also called HSF2BP ARM; H3 (recombinant); source: E. coli BL21 DE3 Rosetta2, purified (HisTrap, TEV cleavage, SEC)
With B2, the entries for the “stoichiometry N” value in series [5] and in series [6] were 2 and 4, respectively.

B3: FNMR: BRCA2 fragment aa 2252 to aa 2342, recombinant (protein)
chain: SLFTCPENEEMVLSNSRIGKRRGEPLILVGEPSIKRNLLNEFDRIIENQEKSLKASKSTPDGTIKDRRLFMHHVSLEPITTVPFRTTKERQ
modifications: left off: GB1, C-terminal, cleaved | His6, C-terminal, cleaved
notes: BRCA2 fragment aa 2252 to aa 2342, recombinant
Regarding B3, the ΔG is -10.8 kcal/mol in series [7] (pH 7.5, expt 1) and -10.5 kcal/mol in series [7] (pH 7.5, expt 2). In addition, the “−TΔS” value is -1.2 kcal/mol in series [7] (pH 7.5, expt 1) and -1.1 kcal/mol in series [7] (pH 7.5, expt 2). Moreover, the “ΔH (±error)” value in series [7] (setting [9]) was −9.6 (0.1) kcal/mol; in series [7] (setting [10]), −9.4 (0.2) kcal/mol. In series [7] (compared with the affinity measured between ARM and F0), the “affinity relative to F0” value is listed as “about threefold higher”. For the same molecule, the “decrease of HSQC peak intensities” value in series [8] was “more than 60%”.

What is called stoichiometry N is a count of units in the complex or per binding partner.
